Read-outs that look alike come from different tables or passages of the source.
Columns and labels:
[1] = test system: Female C57/Bl6 mice, mTNF + zVAD-fmk induced hypothermia; experiment: TNF-Induced Systemic Inflammatory Response Syndrome (SIRS), body temperature; type: in vivo; conditions: mouse, 3 h after mTNF, relative to 6 mg/kg Nec-1s, read-out: % protection from body temp loss; for inhibition in vivo at 0.4 mg/kg: 0.4 mg/kg oral gavage 2 h before mTNF
Description: (§1) TNF-Induced Systemic Inflammatory Response Syndrome (SIRS)
(§2) RIPK1 inhibitors were evaluated for efficacy in vivo using a TNF-dependent model of systemic “shock”, also known as systemic inflammatory response syndrome (SIRS) (Duprez et al. 2011, Immunity 35(6):908-918). Intravenous injection of murine TNF induces a systemic inflammatory response characterized by a decrease in body temperature and an increase in circulating cytokines (IL-6, KC) in the serum. The addition of zVAD-fmk strongly sensitizes mice to TNF-induced shock through the inhibition of caspases (Cauwels et al., 2003). The combination of pretreatment with zVAD-fmk prior to injection of mTNF forms the basis of the RIPK1-dependent, TNF-induced, inflammatory response in this model.
(§3) Female C57/Bl6 mice (9 to 11 weeks old) were obtained from Jackson Labs (Bar Harbor, Me.). Mice were housed in BMS' animal facility with ad libitum access to food and water. Mice were and allowed to acclimate for at least 2 weeks and typically weighed at least 21 grams before being used in any studies. Group size was 6 mice per treatment. All experiments were conducted with the approval of BMS' Institutional Animal Care and Use Committee (IACUC)
(§4) Program compounds were dosed by oral gavage 2 h before IV challenge with 20 μg of murine TNF (#CRT192C, Cell Sciences, Canton, Mass.). zVAD-fmk (16.7 mg/kg) was given IV, 15 min before mTNF injection. The RIPK1 kinase inhibitor, necrostatin-1s (Nec-1s) was used as a positive control and was dosed at 6 mg/kg, IV, 30 minutes before mTNF challenge. mTNF was diluted in endotoxin-free PBS and 20 μg/mouse was injected in a volume of 0.1 ml into the retro-orbital sinus. All IV injections were done via the retro-orbital sinus and injection sites were alternated (left and right sides).
Three (3) hours after mTNF injection, mice were assessed for hypothermia and mortality. Rectal body temperature was recorded with an electric thermometer (Acorn Series Model JKT with a Ret-3 probe, Oakton Instruments Vernon Hills Ill. 60061).
(§5) Using these assays, the percent protection of body temperature and percent reduction in IL6 cytokine of the following compounds were determined. See Table B. % Protection is relative to a 6 mg/kg dose of Nec-1s (5-((7-Cl-1H-indol-3-yl)methyl)-3-methylimidazolidine-2,4-dione)).

[2] = test system: MLKL phosphorylation in HT29-L23 human colorectal adenocarcinoma cells; experiment: MLKL Phosphorylation High-Content Assay; type: cell-based; conditions: Homo sapiens
Outline: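 IC50 and Ymax obtained by 4-parameter logistic fitting of MLKL phosphorylation, measured as mean circ-ring average intensity ratio from high-content images. Staining used an anti-phospho-S358 MLKL antibody overnight at 4° C., following six-hour cell incubation at 37° C.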

[3] = test system: IL-6; experiment: TNF-Induced SIRS, serum cytokines (IL-6, KC) by ELISA; type: in vivo; conditions: mouse, relative to 6 mg/kg Nec-1s, read-out: % protection from IL6 increase; for inhibition in vivo at 0.4 mg/kg: 0.4 mg/kg oral gavage 2 h before mTNF
Description: as §1, §2, §3, §4
(§6) Blood samples for PK determination were collected into heparinized microtainer blood tubes (Part #365965, Becton Dickinson, Franklin Lakes N.J.) and mixed well. Dried blood spots (DBS) were prepared by pipetting 10 μl of whole blood, in duplicate, onto bioanalysis cards (#GR2261004, Perkin Elmer, Greenville, S.C.). A serum sample was obtained by collecting blood into a separator tube (#450472, Greiner Bio-One, Austria) and centrifuged (10 min at 10,000 RPM) to separate the serum. All blood samples were obtained from the retro-orbital sinus while under isoflurane anesthesia.
Serum cytokines were evaluated by ELISA assay. IL-6 was measured using OPTeia Kit (Becton Dickinson, Franklin Lakes N.J.) while KC was measured using an R&D Duoset kit (R&D Systems Inc. Minneapolis, Minn.)
as §5

[4] = Exposure in TNF-induced SIRS study (blood samples for PK determination); type: in vivo; conditions: mouse
Description: as §4, §6

[5] = target: T1, His-GST-TVMV-hRIPK1(1-324) (Homo sapiens, UniProt Q13546); experiment: RIPK1 HTRF Binding Assay
T1 construct: The coding region of human RIPK1(1-324) flanked by NdeI site at 5′ end; made in house; host or cells: Spodoptera frugiperda (Sf9) insect cells, baculovirus
T1 sequence (Q13546 1-324): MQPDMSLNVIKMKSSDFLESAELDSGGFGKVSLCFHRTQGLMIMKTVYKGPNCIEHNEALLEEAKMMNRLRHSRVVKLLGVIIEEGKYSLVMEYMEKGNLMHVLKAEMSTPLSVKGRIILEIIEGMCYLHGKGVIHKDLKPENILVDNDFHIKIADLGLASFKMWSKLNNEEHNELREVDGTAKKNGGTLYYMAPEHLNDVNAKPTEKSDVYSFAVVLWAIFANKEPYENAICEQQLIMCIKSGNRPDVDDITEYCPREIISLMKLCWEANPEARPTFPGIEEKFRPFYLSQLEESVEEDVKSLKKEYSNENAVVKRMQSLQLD

[6] = x marks IC50 class 20-200 nM, read-out: pMLKL cell activity 20-200 nM
[7] = x marks IC50 class <20 nM, read-out: RIPK1 HTRF binding <20 nM
[8] = x marks IC50 class <20 nM, read-out: pMLKL cell activity <20 nM
[9] = 0.1 mg/kg oral gavage 2 h before mTNF
[10] = 1.0 mg/kg oral gavage 2 h before mTNF
[11] = x marks IC50 class 20-200 nM, read-out: RIPK1 HTRF binding 20-200 nM
[12] = x marks IC50 class >200 nM, read-out: pMLKL cell activity >200 nM

Row | Structure (SMILES) | IC50 [2, 6] | IC50 [5, 7] | IC50 [2, 8] | IC50 [5, 11] | other results
1 | COc1ncc(-c2ccn3nc(N)nc3c2)cc1C(=O)NCc1ccccc1OC(F)(F)F [Example 74, 5-{2-Amino-[1,2,4]triazolo[1,5-a]pyridin-7-yl}-2-methoxy-N-{[2-(trifluoromethoxy)phenyl]methyl}pyridine-3-carboxamide] | 20 to 200 nM | < 20 nM | – | – | inhibition in vivo at 0.4 mg/kg [1]: 115%; inhibition in vivo at 0.4 mg/kg [3]: 87%; Exposure ([4]; 0.4 mg/kg oral gavage): 117 nM
2 | COc1ncc(-c2ccn3nc(N)nc3c2)cc1C(=O)N1CCC[C@@H](Cc2ccc(F)cc2)C1 [Example 136, 7-{5-[(3S)-3-[(4-fluorophenyl)methyl]piperidine-1-carbonyl]-6-methoxypyridin-3-yl}-[1,2,4]triazolo[1,5-a]pyridin-2-amine] | – | < 20 nM | < 20 nM | – | inhibition in vivo at 0.4 mg/kg [1]: 106%; inhibition in vivo at 0.4 mg/kg [3]: 80%; Exposure ([4]; 0.4 mg/kg oral gavage): 364 nM
3 | COc1ncc(-c2ccn3nc(N)nc3c2)cc1C(=O)NC(C)c1ccccc1OC(F)(F)F (single isomer, unassigned) [Example 38-1, 5-{2-Amino-[1,2,4]triazolo[1,5-a]pyridin-7-yl}-2-methoxy-N-{1-[2-(trifluoromethoxy)phenyl]ethyl}pyridine-3-carboxamide] | – | < 20 nM | < 20 nM | – | inhibition in vivo at 0.1 mg/kg [1, 9]: 80%; inhibition in vivo at 0.1 mg/kg [3, 9]: 93%; Exposure ([4]; 0.1 mg/kg oral gavage): 12 nM
4 | COc1ncc(-c2ccn3nc(N)nc3c2)cc1C(=O)NCc1cc(F)cc(F)c1OCC1CC1 [Example 131, 5-{2-amino-[1,2,4]triazolo[1,5-a]pyridin-7-yl}-N-{[2-(cyclopropylmethoxy)-3,5-difluorophenyl]methyl}-2-methoxypyridine-3-carboxamide] | – | < 20 nM | < 20 nM | – | inhibition in vivo at 0.4 mg/kg [1]: 15%; inhibition in vivo at 0.4 mg/kg [3]: 8%; Exposure ([4]; 0.4 mg/kg oral gavage): 50 nM
5 | Cc1ncc(-c2ccn3nc(N)nc3c2)cc1C(=O)NC(C)c1cccc(OC(F)(F)F)c1 (stereo not shown) [Example 251, 5-{2-amino-[1,2,4]triazolo[1,5-a]pyridin-7-yl}-2-methyl-N-{1-[3-(trifluoromethoxy)phenyl]ethyl}pyridine-3-carboxamide] | 20 to 200 nM | – | – | – | inhibition in vivo at 1 mg/kg [1, 10]: 86%; inhibition in vivo at 1 mg/kg [3, 10]: 97%; Exposure ([4]; 1.0 mg/kg oral gavage): 1208 nM
6 | CCc1ncc(-c2ccn3nc(N)nc3c2)cc1C(=O)NCc1cc(C(F)(F)F)ccc1F [Example 322, 5-(2-amino-[1,2,4]triazolo[1,5-a]pyridin-7-yl)-2-ethyl-N-(2-fluoro-5-(trifluoromethyl)benzyl)nicotinamide] | 20 to 200 nM | – | – | 20 to 200 nM | –
7 | Cc1nc(C)c(-c2ccn3nc(N)nc3c2)cc1C(=O)NCc1ccccc1OCC(F)(F)F [Example 294, 5-(2-amino-[1,2,4]triazolo[1,5-a]pyridin-7-yl)-2,6-dimethyl-N-(2-(2,2,2-trifluoroethoxy)benzyl)nicotinamide] | – | – | – | 20 to 200 nM | IC50 [2, 12]: > 200 nM
8 | Cc1nc(C)c(-c2ccn3nc(N)nc3c2)cc1C(=O)NCc1cc(F)cc(F)c1OCC1CCCC1 [Example 188, 5-{2-amino-[1,2,4]triazolo[1,5-a]pyridin-7-yl}-N-{[2-(cyclopentylmethoxy)-3,5-difluorophenyl]methyl}-2,6-dimethylpyridine-3-carboxamide] | – | < 20 nM | < 20 nM | – | –
9 | COc1ncc(-c2ccn3nc(N)nc3c2)cc1C(=O)NCc1ccccc1OC1CCOCC1 [Example 115, 5-{2-amino-[1,2,4]triazolo[1,5-a]pyridin-7-yl}-2-methoxy-N-{[2-(oxan-4-yloxy)phenyl]methyl}pyridine-3-carboxamide] | – | < 20 nM | < 20 nM | – | –
10 | COc1ncc(-c2ccn3nc(N)nc3c2)cc1C(=O)NCc1cc(F)ccc1OCC1CCCC1 [Example 129, 5-{2-amino-[1,2,4]triazolo[1,5-a]pyridin-7-yl}-N-{[2-(cyclopentylmethoxy)-5-fluorophenyl]methyl}-2-methoxypyridine-3-carboxamide] | 20 to 200 nM | < 20 nM | – | – | –
11 | COc1ncc(-c2ccn3nc(N)nc3c2)cc1C(=O)NCc1ccc(F)cc1OC1CCOCC1 [Example 80, 5-{2-Amino-[1,2,4]triazolo[1,5-a]pyridin-7-yl}-N-{[4-fluoro-2-(oxan-4-yloxy)phenyl]methyl}-2-methoxypyridine-3-carboxamide] | 20 to 200 nM | < 20 nM | – | – | –
12 | Nc1nc2cc(-c3cnc(N)c(C(=O)NCc4ccccc4OC4CCCC4)c3)ccn2n1 [Example 54, 2-Amino-5-{2-amino-[1,2,4]triazolo[1,5-a]pyridin-7-yl}-N-{[2-(cyclopentyloxy)phenyl]methyl}pyridine-3-carboxamide] | 20 to 200 nM | < 20 nM | – | – | –
13 | Cc1ncc(-c2ccn3nc(N)nc3c2)cc1C(=O)NCc1cccc(OC(F)(F)F)c1 [Example 246, 5-{2-amino-[1,2,4]triazolo[1,5-a]pyridin-7-yl}-2-methyl-N-{[3-(trifluoromethoxy)phenyl]methyl}pyridine-3-carboxamide] | – | – | – | 20 to 200 nM | IC50 [2, 12]: > 200 nM
14 | COc1ccc(-c2ccn3nc(N)nc3c2)nc1C(=O)N[C@H](C)c1cc(OC(F)(F)F)ccc1F [Example 406, (R)-6-(2-amino-[1,2,4]triazolo[1,5-a]pyridin-7-yl)-N-(1-(2-fluoro-5-(trifluoromethoxy)phenyl)ethyl)-3-methoxypicolinamide] | – | – | – | 20 to 200 nM | IC50 [2, 12]: > 200 nM
15 | COc1nc(C)c(-c2ccn3nc(N)nc3c2)cc1C(=O)NCc1cc(F)cc(C(F)(F)F)c1 [Example 196, 5-{2-amino-[1,2,4]triazolo[1,5-a]pyridin-7-yl}-N-{[3-fluoro-5-(trifluoromethyl)phenyl]methyl}-2-methoxy-6-methylpyridine-3-carboxamide] | – | – | – | 20 to 200 nM | IC50 [2, 12]: > 200 nM
16 | COc1ncc(C(=O)NCc2cc(F)ccc2OC2CCCC2)cc1-c1ccn2nc(N)nc2c1 [Example 27, 5-{2-Amino-[1,2,4]triazolo[1,5-a]pyridin-7-yl}-N-{[2-(cyclopentyloxy)-5-fluorophenyl]methyl}-6-methoxypyridine-3-carboxamide] | – | < 20 nM | < 20 nM | – | –

Reference: patent US10913738B2 (BRISTOL-MYERS SQUIBB COMPANY, priority 2017, dated 2021)
